We go through 2 molecules from patent US11172674B2, “Preservation solutions” (ORGAN PRESERVATION SOLUTIONS LIMITED, priority 2017, dated 2021).

Structures are written as SMILES.

The test system of data set [1] is human cells. The note with it: Heeneman et al 1993; cited from earlier work.
Data set [2] is described as follows: Stability of aspirin in preservation solution on storage (HPLC). The format is physicochemical. From the text: FIG. 1 illustrates the stability of aspirin in a preservation solution: HPLC methods were developed to measure the concentration of aspirin and salicylic acid in the Prior Art solution. Aspirin is rapidly hydrolysed to salicylic acid and acetic acid during storage. […] As an example, FIG. 1 illustrates that storage of the solution for 8 weeks results in 100% of the aspirin converting to salicylic acid and the production of equimolar amounts of damaging acetic acid.

For the molecule `N` [ammonia], in data set [1], the “concentration toxic to human cells” value was 300 µM.

For `CC(=O)Oc1ccccc1C(=O)O` [aspirin, acetylsalicylic acid], the parent compound remaining result in data set [2] (Prior Art solution, after 8 weeks storage, HPLC) is “none of the parent compound remains”. Moreover, in data set [2] (storage of the prior art solution for 8 weeks), the “aspirin converting to salicylic acid” value is listed as 100%.
